Laboratory results from patent publication US20110269942A1, “ANTIBODIES MODIFIED WITH HYDROPHOBIC MOLECULE” (DAIICHI SANKYO COMPANY, LIMITED, priority 2007, published 2011).
Each block holds one molecule with its values, some of them ahead of it.

Assays:
Jurkat cells = test: Apoptosis-inducing activity of hydrophobic molecule-modified antibodies against Jurkat cells (cell viability from ATP level; method of Test Example 13); format: cell-based, human; details: 72 hr
[1] = system: human colon cancer strain COLO 205; test: Antitumor activity against human colon cancer strain COLO 205-transplanted nude mice (tumor volume, rate of tumor growth); format: in vivo, nude mice BALB/cA Jcl-nu; details: 0.33 mg/ml, 0.1 ml per 10 g body weight i.v., Days 8, 11, 13, 15, 18, 20, 22, 25, 27
Protocol: The in-vivo antitumor activity of the immunoliposome prepared in Example 5 was studied. 2×10^6 cells of a human colon cancer strain COLO 205 (purchased from American Type Culture Collection) which was confirmed by quarantine to have no detectable mouse pathogenic microorganisms were hypodermically transplanted to the axillary region of nude mice BALB/cA Jcl-nu (CLEA Japan, Inc.). The immunoliposome of Example 5 was diluted, immediately before its administration, with saline (Otsuka Pharmaceutical Co., Ltd.) to 1 and 0.33 mg/ml in terms of antibody concentrations. Seven days after the transplantation, the administration of the immunoliposome of Example 5 to COLO 205 cancer-bearing mice in which the tumor successfully grafted was started. […]
The major axis and minor axis of the transplanted tumor were measured two to three times a week using an electronic vernier caliper (CD-15C; Mitutoyo Corp.). The tumor volume was determined according to the following calculation formula:
Tumor volume (mm^3)=½×minor axis^2 (mm)×major axis (mm).
Moreover, the rate of tumor growth (mm^3/day) of each individual was calculated, and the statistically significant difference was tested by a Dunnett test using the value. In this context, a P value less than 0.05 was regarded as being a significant difference among groups. […]

BxPC-3 cells = test: Apoptosis-inducing activity of hydrophobic molecule-modified antibodies against BxPC-3 cells (cell viability from ATP level); format: cell-based, human
[2] = biological target: human DR5 (death receptor 5) (human) (UniProt O14763); test: cell-based or functional assay
[3] = system: human malignant melanoma cell strain A2058 cells; test: Apoptosis-inducing activity of immunoliposomes against A2058 cells (cell viability from ATP level); format: cell-based; details: antibody not conjugated to an immunoliposome
Protocol: (§1) Jurkat cells were counted by a trypan blue staining method, and the concentration was then adjusted to 1×10^5 cells/ml with a DMEM medium (manufactured by Invitrogen Corp.; hereinafter, referred to as a DMEM medium) containing 10% fetal calf serum (manufactured by Hyclone Laboratories, Inc.). […] To this microplate, the cell suspension was inoculated in an amount of 50 μl (5×10^3 cells)/well. The plate was cultured at 37° C. for 72 hr in the presence of 5% carbon dioxide, and the ATP level of each well was measured. […] Then, the supernatant was transferred in an amount of 100 μl/well to a 96-well white microplate (manufactured by Corning Inc.), and luminescence from each well was measured using a luminometer (manufactured by Molecular Devices Corp.). […] The cell viability of each well was calculated according to the following equation:
(§2) Cell viability (%)=(Luminescence intensity of test wells−Average luminescence intensity of background wells)/(Average luminescence intensity of negative control wells−Average luminescence intensity of background wells)×100.
The apoptosis-inducing activities against human malignant melanoma cell strain A2058 cells were measured according to the method described in Test Example 1.

[4] = system: human malignant melanoma cell strain A375 cells; test: Apoptosis-inducing activity of immunoliposomes against A375 cells (cell viability from ATP level); format: cell-based; details: antibody not conjugated to an immunoliposome
Protocol: as §1, §2
The apoptosis-inducing activities against human malignant melanoma cell strain A375 cells were measured according to the method described in Test Example 1.

human Fas = biological target: T1, human Fas (human, UniProt P25445 26-335); test: cell-based or functional assay
T1 sequence (looked up): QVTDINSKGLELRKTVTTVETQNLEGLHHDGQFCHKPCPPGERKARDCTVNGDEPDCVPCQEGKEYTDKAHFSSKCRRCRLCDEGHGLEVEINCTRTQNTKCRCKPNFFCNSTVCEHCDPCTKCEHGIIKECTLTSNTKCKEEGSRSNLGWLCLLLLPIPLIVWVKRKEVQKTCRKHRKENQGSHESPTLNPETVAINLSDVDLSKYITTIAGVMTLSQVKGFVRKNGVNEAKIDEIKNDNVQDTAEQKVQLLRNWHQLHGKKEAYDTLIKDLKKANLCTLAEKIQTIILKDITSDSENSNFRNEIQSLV

Molecule: Example 45: DSPE-PEG3400-modified hTRA-8 Fullbody (Lys)
apoptosis-inducing activity compared with that of secondary antibody-cross-linked hTRA-8 (Jurkat cells): stronger

Molecule: Example 47: DSPE-PEG2000-modified hTRA-8 Fullbody (Lys), reaction ratio 1:1, large scale
antitumor activity (rate of tumor growth, Dunnett test) [1]: antitumor activity with a statistically significant difference

Molecule: Example 48: DSPE-PEG2000-modified hTRA-8 F(ab′)2 (Lys)
apoptosis-inducing activity compared with that of secondary antibody-cross-linked hTRA-8 (BxPC-3 cells): stronger

Molecule: Example 46: DSPE-PEG5000-modified hTRA-8 Fullbody (Lys), reaction ratio 1:2
apoptosis-inducing activity compared with that of secondary antibody-cross-linked hTRA-8 (Jurkat cells): stronger | apoptosis-inducing activity compared with that of secondary antibody-cross-linked hTRA-8 (BxPC-3 cells): stronger

Molecule: Example 54: PEG2000-modified hTRA-8 Fab′ (Cys), hydrophobic molecule-free, water-soluble linker-modified antibody
apoptosis-inducing activity (in words) (BxPC-3 cells; 1000, 100, 10, or 1 ng/ml): weak

Molecule: Example 34: DSPE-PEG2000-modified hTRA-8 Fullbody (Lys), reaction ratio 1:4
apoptosis-inducing activity compared with that of secondary antibody-cross-linked hTRA-8 (Jurkat cells): stronger

Molecule: hTRA-8 F(ab′)2 fragment: F(ab′)2 fragment obtained by pepsin digestion of hTRA-8
apoptosis-inducing activity (in words) (BxPC-3 cells; 1000, 100, 10, or 1 ng/ml): hardly exhibited an apoptosis-inducing activity

Molecule: Example 39: DPPE-PEG2000-modified hTRA-8 Fab′ (Cys)
apoptosis-inducing activity compared with that of secondary antibody-cross-linked hTRA-8 (Jurkat cells): equivalent to or stronger

Molecule: Example 33: DSPE-PEG2000-modified hTRA-8 Fullbody (Lys), reaction ratio 1:1
apoptosis-inducing activity compared with that of secondary antibody-cross-linked hTRA-8 (Jurkat cells): stronger

Molecule: Example 35: DSPE-PEG2000-modified hTRA-8 Fullbody (Lys), reaction ratio 1:12
apoptosis-inducing activity compared with that of secondary antibody-cross-linked hTRA-8 (Jurkat cells): stronger

Molecule: hTRA-8 Fab′ fragment: Fab′ obtained by reducing hTRA-8 F(ab′)2 with DTT
apoptosis-inducing activity (in words) (BxPC-3 cells; 1000, 100, 10, or 1 ng/ml): hardly exhibited an apoptosis-inducing activity

Molecule: Example 42: DPPE-PEG2000-modified hTRA-8 Fullbody (Lys)
apoptosis-inducing activity compared with that of secondary antibody-cross-linked hTRA-8 (Jurkat cells): stronger

Molecule: DSPE-PEG2000-modified MAB631 Fullbody of Example 49 (antibody)
EC50 (concentration exhibiting 50% cell viability), Jurkat cells, Test Example 20 [2]: 0.025 ng/mL | cell viability (Jurkat cells) [2]: < 10% | EC50 relative to Ab, Jurkat cells, Test Example 20 ([2]; scale: fold): 58.4

Molecule: Example 36: DSPE-PEG2000-modified hTRA-8 Fullbody (Cys), reaction ratio 1:10
apoptosis-inducing activity compared with that of secondary antibody-cross-linked hTRA-8 (Jurkat cells): stronger

Molecule: hTRA-8: antibody obtained by humanizing mouse anti-human DR5 antibody TRA-8; heavy chain SEQ ID NO: 1, light chain SEQ ID NO: 2
apoptosis-inducing activity (in words) [3]: weak | apoptosis-inducing activity (in words) [4]: weak | apoptosis-inducing activity (in words) (BxPC-3 cells; uncross-linked with secondary antibody): weak

Molecule: Example 32: DSPE-PEG2000-modified hTRA-8 Fab′ (Cys), reaction ratio 1:4
apoptosis-inducing activity compared with that of secondary antibody-cross-linked hTRA-8 (Jurkat cells): stronger

Molecule: Example 41: DSPE-PEG10000-modified hTRA-8 Fullbody (Lys)
apoptosis-inducing activity compared with that of secondary antibody-cross-linked hTRA-8 (Jurkat cells): stronger

Molecule: Example 38: DSPE-PEG10000-modified hTRA-8 Fab′ (Cys)
apoptosis-inducing activity compared with that of secondary antibody-cross-linked hTRA-8 (Jurkat cells): equivalent to or stronger

Molecule: Example 53: PEG5000-modified hTRA-8 Fullbody (Lys), hydrophobic molecule-free, water-soluble linker-modified antibody
apoptosis-inducing activity (in words) (BxPC-3 cells; 1000, 100, 10, or 1 ng/ml): weak

Molecule: Example 37: DSPE-PEG2000-modified hTRA-8 Fab′ (Cys), reaction ratio 1:1
apoptosis-inducing activity compared with that of secondary antibody-cross-linked hTRA-8 (Jurkat cells): equivalent to or stronger | apoptosis-inducing activity compared with that of secondary antibody-cross-linked hTRA-8 (BxPC-3 cells): stronger

Molecule: Example 40: Chol-PEG5000-modified hTRA-8 Fab′ (Cys)
apoptosis-inducing activity compared with that of secondary antibody-cross-linked hTRA-8 (Jurkat cells): equivalent to or stronger

Molecule: Example 52: PEG2000-modified hTRA-8 Fullbody (Lys), hydrophobic molecule-free, water-soluble linker-modified antibody
apoptosis-inducing activity (in words) (BxPC-3 cells; 1000, 100, 10, or 1 ng/ml): weak

Molecule: Example 43: Chol-PEG5000-modified hTRA-8 Fullbody (Lys)
apoptosis-inducing activity compared with that of secondary antibody-cross-linked hTRA-8 (Jurkat cells): stronger

EC50 relative to Ab, Jurkat cells, Test Example 21 (human Fas): > 144 fold (control antibody EC50 / modified antibody EC50)
B1: DSPE-PEG2000-modified hHFE7A Fullbody of Example 50 (antibody, human IgG1, kappa, V domains shown)
VH: QVQLVQSGAEVKKPGASVKVSCKASGYTFTSYWMQWVKQAPGQGLEWMGEIDPSDSYTNYNQKFKGKATLTVDTSTSTAYMELSSLRSEDTAVYYCARNRDYSNNWYFDVWGEGTLVTVSS
VL: EIVLTQSPGTLSLSPGERATLSCKASQSVDYDGDSYMNWYQQKPGQAPRLLIYAASNLESGIPDRFSGSGSGTDFTLTISRLEPEDFAVYYCQQSNEDPRTFGQGTKLEIKR
modifications: DSPE-PEG2000 on thiolated Lys (residue and chain not specified)
EC50 (concentration exhibiting 50% cell viability), Jurkat cells, Test Example 21 (human Fas): 6.94 ng/mL

Cross-linked Antibody EC50, Jurkat cells, Test Example 21 (human Fas): > 1000 ng/mL
B2: anti-human Fas antibody hHFE7A (humanized HFE7A), Fullbody (antibody, human IgG1, kappa, V domains shown)
VH: QVQLVQSGAEVKKPGASVKVSCKASGYTFTSYWMQWVKQAPGQGLEWMGEIDPSDSYTNYNQKFKGKATLTVDTSTSTAYMELSSLRSEDTAVYYCARNRDYSNNWYFDVWGEGTLVTVSS
VL: EIVLTQSPGTLSLSPGERATLSCKASQSVDYDGDSYMNWYQQKPGQAPRLLIYAASNLESGIPDRFSGSGSGTDFTLTISRLEPEDFAVYYCQQSNEDPRTFGQGTKLEIKR
